The values that follow come from ChEMBL document CHEMBL4196030, “Enediynes bearing polyfluoroaryl sulfoxide as new antiproliferative agents with dual targeting of microtubules and DNA” (Eur J Med Chem, 2018).

The source made the active and inactive calls. The calls are words filed in the database; no cut-off is given here.

A short description of data set [1]: Selectivity ratio of IC50 for antiproliferative activity against human MIAPaCa2 cells under dark condition to IC50 for antiproliferative activity against human MIAPaCa2 cells under 0.6 J/cm2 light irradiation. The data set is classed as functional, MIA PaCa-2.
Data set [2] has as its system MIA PaCa-2. The data set can be described thus: Antiproliferative activity against human MIAPaCa2 cells preincubated for 4 hrs followed by 0.6 J/cm2 light irradiation for 10 mins and measured after 70 hrs by alamar blue assay. The data set is classed as functional, cell-based. The conditions noted are these: MIA PaCa-2, light or radiation study.
Data set [3] concerns MIA PaCa-2. The data set can be described thus: Antiproliferative activity against human MIAPaCa2 cells after 70 hrs by alamar blue assay. The data set is classed as functional, cell-based. The settings on record: MIA PaCa-2, 70 h.
In data set [4] the test system is HUVEC. The data set can be described thus: Antiproliferative activity against HUVEC after 70 hrs by alamar blue assay. Format: cell-based. The conditions noted are these: Homo sapiens.
Data set [5] has as its system BEAS-2B. The data set can be described thus: Antiproliferative activity against human BEAS2B cells after 70 hrs by alamar blue assay. The data set is classed as cell-based.
The test system of data set [6] is HBL-100. The data set can be described thus: Cytotoxicity against human HBL100 cells assessed as reduction in cell viability after 70 hrs by alamar blue assay. Format: cell-based. The settings on record: HBL-100, 70 h.
Data set [7] relates to HUVEC. The data set can be described thus: Cytotoxicity against HUVEC assessed as reduction in cell viability after 70 hrs by alamar blue assay. Format: cell-based. The settings on record: Homo sapiens.
Data set [8] concerns BEAS-2B. Nature of the data set: Cytotoxicity against human BEAS2B cells assessed as reduction in cell viability after 70 hrs by alamar blue assay. Format: cell-based.
In data set [9] the test system is MIA PaCa-2. Nature of the data set: Cytotoxicity against human MIAPaCa2 cells assessed as reduction in cell viability after 70 hrs by alamar blue assay. Format: cell-based. The conditions noted are these: MIA PaCa-2, 70 h.
The subject of data set [10] is HBL-100. Nature of the data set: Antiproliferative activity against human HBL100 cells after 70 hrs by alamar blue assay. The data set is classed as cell-based. The settings on record: HBL-100, 70 h.
The test system of data set [11] is A498. The data set can be described thus: Disruption of microtubule network in human A498 cells at 5 times antiproliferative IC50 after 1 to 12 hrs by immunofluorescence assay. Format: cell-based.
In data set [12] the test system is A549. Nature of the data set: Disruption of microtubule network in human A549 cells at 5 times antiproliferative IC50 after 1 to 12 hrs by immunofluorescence assay. The data set is classed as cell-based.
The species entered for data set [13] is Homo sapiens. Nature of the data set: Disruption of microtubule network in human MIAPaCa2 cells at 5 times antiproliferative IC50 after 1 to 12 hrs by immunofluorescence assay. The data set is classed as cell-based.
Data set [14] can be described thus: Ratio of IC50 for antiproliferative activity against human BEAS2B cells to IC50 for cytotoxicity against human BEAS2B cells. The conditions noted are these: read-out: Ratio IC50. Format: cell-based, BEAS-2B.
Data set [15] can be described thus: Ratio of IC50 for antiproliferative activity against human MIAPaCa2 cells to IC50 for cytotoxicity against human MIAPaCa2 cells. More on the design: species or system MIA PaCa-2.
Data set [16] can be described thus: Ratio of IC50 for antiproliferative activity against human HBL100 cells to IC50 for cytotoxicity against human HBL100 cells. The data set is classed as cell-based, HBL-100. The settings on record: read-out: Ratio IC50.
The nature of data set [17]: Induction of supercoiled plasmid complementary DNA3 cleavage at 100 uM after 1 hr by gel electrophoresis method.

Consider `CCCCC(=O)OCC#Cc1ncccc1C#CC[S+]([O-])c1c(F)c(F)c(F)c(F)c1F` (stereo not given), for which the “Ratio IC50” value in data set [1] is reported as 6. The half-maximal inhibitory concentration (IC50) came out at 0.5 µM in data set [2] and 3 µM in data set [3].

The compound `[O-][S+](CC#Cc1cccnc1C#CCOC1CCCCO1)c1c(F)c(F)c(F)c(F)c1F` (stereo not given) returned an IC50 in data set [3] of 1 µM.

With `COc1cccc2c1C(=O)c1c(O)c3c(c(O)c1C2=O)C[C@@](O)(C(=O)CO)C[C@@H]3O[C@H]1C[C@H](N)[C@H](O)[C@H](C)O1` [DOXORUBICIN], the IC50 in [4] is 0.15 µM; in [5], 2.4 µM; in data set [6] it was 8.5 µM; in data set [7], 0.48 µM; in data set [8], 18.6 µM; in [9] it was 3.1 µM. Further, in data set [10], the IC50 was 0.08 µM.

The compound `COCCOCOCC#Cc1ncccc1C#CC[S+]([O-])c1c(F)c(F)c(F)c(F)c1F` (stereo not given) came in with a 50% inhibitory concentration (IC50) in data set [3] of 0.8 µM.

In [3], `[N-]=[N+]=NCC#Cc1ccccc1C#CC[S+]([O-])c1c(F)c(F)c(F)c(F)c1F` (stereo not given) came in with an IC50 of 2.4 µM.

`COc1cc2c(c(OC)c1OC)-c1ccc(OC)c(=O)cc1[C@@H](NC(C)=O)CC2`: the outcome in [11] was Active.

As to `[O-][S+](CC#Cc1cc2ccccc2cc1C#CCO)c1c(F)c(F)c(F)c(F)c1F` (stereo not given), the result in data set [12] and in data set [13] was Active. Moreover, the IC50 in data set [3] worked out at 4.7 µM.

For `[O-][S+](CC#Cc1ccccc1C#CCO)c1ccccc1` (stereo not given), the half-maximal inhibitory concentration (IC50) amounted to 79.8 µM in data set [4]; 29.5 µM in data set [5]; 35.4 µM in data set [6]; 66.2 µM in [7]; 81.9 µM in data set [8]; 124 µM in data set [9]. The IC50 was found to be 15.9 µM in data set [3] and 19 µM in data set [10]. For the same compound, the outcome in data set [12], in data set [11] and in [13] was inactive. The selectivity ratio in data set [14] is 2.8; in [16], 1.8. In [15], the “Ratio IC50” value was found to be 7.8.

With `[O-][S+](CC#Cc1ccccc1C#CCO)c1c(F)c(F)c(F)c(F)c1F` (stereo not given), the result in data set [12] and in [13] was Active. The outcome in data set [17] was inactive. The IC50 in data set [3] was 2.6 µM.
